Experimental data as given in patent US20170112941A1, “VE-CADHERIN BINDING BIOCONJUGATE” (Symic IP, LLC, priority 2015, published 2017).
Ends that are not written are not given here. * marks the point of attachment. NHNH2 = NN*

Assays:
[1] = test system: HUVECs; assay: HUVEC culture, thrombin challenge, pMLC/phalloidin fluorescence imaging; format: cell-based, human; conditions: thrombin 1 U/mL, eHep-Bbeta 100 μg/mL, 10 minutes at 37° C., FIG. 3
Experimental: HUVECs were grown to confluence in 24-well tissue culture treated plates (10000 cells per cm^2) for 3 days. The cells were cultured in vascular basal medium (ATCC, prod# PCS-100-030) supplemented with 0.2% bovine brain extract (BBE), 10 mM L-glutamine, 5 U/mL heparin sodium, 1 μg/mL hydrocortisone hemisuccinate, 50 μg/mL ascorbic acid, and 20% fetal bovine serum. The wells were washed three times with 1× phosphate buffered saline (PBS), and then were treated with medium alone, medium supplemented with thrombin at 1 U/mL, medium supplemented with thrombin at 1 U/mL and eHep-Bbeta at 100 μg/mL, medium supplemented with thrombin at 1 U/mL and heparin at 100 μg/mL for 10 minutes at 37° C. The wells were then washed three times with 1×PBS. Each wash was for 5 minutes. The cells were then fixed using 4% formalin in 1×PBS for 15 minutes at room temperature, washed four times with 1×PBS (each wash was for 10 minutes). Blocking buffer containing 5% normal goat serum, and 0.3% Triton-X 100 in 1×PBS was prepared and 500 μL was added to each well. Blocking was done for 1 hour at room temperature. Antibody dilution buffer containing 1% BSA, and 0.3% Triton-X 100 in 1×PBS was prepared. 200 μL of Rabbit anti pMLC diluted 1:50 using antibody dilution buffer was added to each well and incubated overnight at 4° C. […] The wells were then imaged using an EVOS fluorescence microscope.

[2] = test system: acute renal ischemic model; assay: Renal Ischemia Reperfusion (acute renal ischemic model); format: in vivo; conditions: rat
Experimental: Kidney damage was assessed by measuring serum creatinine levels 24 hours post procedure, and by creatinine clearance measured at 24 hours and 7 days post procedure. In this study, the ischemia time was reduced here to produce a more moderate injury, and the bioconjugate was delivered to the femoral vein, rather than directly to the renal artery, in order to reduce procedure time. See, Verma, et al. “Renal Endothelial Injury and Microvascular Dysfunction in Acute Kidney Injury.” Seminars in nephrology. Vol. 35. No. 1. WB Saunders, 2015 and Urbschat, et al. “Combined peri-ischemic administration of BP 15-42 in treating ischemia reperfusion injury of the mouse kidney.” Microvascular research 101 (2015): 48-54. All test articles were formulated in 1×PBS at 5 mg/mL and 500 μL were delivered for an approximate dose of 10 mg/kg. 1.4. […] Animals were closed and monitored during recovery for 24 hours. • 1.5.8. […] If creatinine clearance was positive in the positive control or test article at 7 days, the animal was survived until day 28, at which point creatinine clearance was again be measured. […] Serum creatinine was measured in each animal at baseline (prior to procedure) and 24 hours post-procedure. • 1.7. Creatinine clearance was measured at 1 and 7 days post procedure. • 1.8. […] Serum creatinine and creatinine clearance levels measured at 24 hours was compared between groups using an unpaired t-test. […]

[3] = target: T1, Recombinant VE cadherin/Fc chimera (Homo sapiens, UniProt P33151); assay: VE-Cadherin Binding Assay (plate ELISA with biotinylated molecule, streptavidin-HRP)
T1 construct: purchased R&D systems 938-VC
Experimental: Recombinant VE cadherin/Fc chimera (R&D systems, Prod#938-VC) was prepared in 1× Phosphate Buffered Saline (PBS, Gibco, pH 7.4) at 5 μg/mL. 50 μL of this solution was incubated in each well of Costar high bind plate (Prod #9018) overnight at 4° C. The plate was washed three times with PBS. VE-cadherin coated wells were blocked using 0.5% non-fat dry milk and 50 μg/mL heparin sodium in 1×PBS. Blocked plates were then treated with a concentration gradient of eHep-Bbeta (biotinylated) molecule (eHep-Bbeta, 1:8:50). The eHep-Bbeta was dissolved in Tris-NaCl—CaCl2 at 1 mg/mL, serial dilution (1:3) 50 μL 2 hour RT. At the end of the incubation plate was washed three times with PBS.
Ultra-Streptavidin HRP (ThermoFisher Scientific, Prod# N504) was diluted 1:500 using 1% BSA, 1×PBS and 0.05% tween was used to detect the biotinylated molecule bound to rh VE-cadherin coated plates. 100 μL of streptavidin solution was incubated in each well for 20 minutes at RT. The plate was washed three times with 1×PBS. 100 μL of TMB substrate solution (Abcam, slowest kinetic rate) was added to each well and developed for 20 minutes in the dark. 25 μL of stop solution (0.64 M H2SO4 in water) was added to stop the reaction and absorbance was read using Molecular Device i3 at 450 nm.
This assay may be used to determine the binding affinity of the bioconjugates as well as the peptides alone.

T1 sequence (P33151 with tags, fused parts or gaps limits assumed): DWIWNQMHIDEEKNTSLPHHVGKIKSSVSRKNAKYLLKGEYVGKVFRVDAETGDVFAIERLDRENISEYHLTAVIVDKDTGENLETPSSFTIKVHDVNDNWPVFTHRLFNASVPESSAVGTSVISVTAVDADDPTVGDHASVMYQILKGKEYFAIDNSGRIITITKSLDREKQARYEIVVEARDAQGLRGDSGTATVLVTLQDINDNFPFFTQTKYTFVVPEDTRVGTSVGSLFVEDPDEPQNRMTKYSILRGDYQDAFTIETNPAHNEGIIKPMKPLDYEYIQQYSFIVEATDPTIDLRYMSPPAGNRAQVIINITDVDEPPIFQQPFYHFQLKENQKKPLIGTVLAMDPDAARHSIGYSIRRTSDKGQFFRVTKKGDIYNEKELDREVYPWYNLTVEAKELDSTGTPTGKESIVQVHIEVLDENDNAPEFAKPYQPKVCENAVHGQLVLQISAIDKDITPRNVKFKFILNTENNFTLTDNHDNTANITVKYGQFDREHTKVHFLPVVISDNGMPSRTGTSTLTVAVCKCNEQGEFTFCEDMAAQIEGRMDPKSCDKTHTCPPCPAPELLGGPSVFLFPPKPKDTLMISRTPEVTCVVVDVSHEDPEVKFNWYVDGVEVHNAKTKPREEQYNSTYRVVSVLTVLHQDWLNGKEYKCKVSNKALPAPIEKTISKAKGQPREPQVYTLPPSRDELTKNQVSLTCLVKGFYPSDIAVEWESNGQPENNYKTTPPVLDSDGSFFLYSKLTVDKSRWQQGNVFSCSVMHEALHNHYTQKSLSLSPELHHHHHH

## eHep-Bbeta: Heparin (MWavg 16 kDa) coupled by EDC to Bbeta peptide GHRPLDKKREEAPSLRPAPPPISGGGYR(GSG)-hydrazide; about 3.7 peptides/heparin (GHRPLDKKREEAPSLRPAPPPISGGGYRGSG-NHNH2; also: coupled by EDC to heparin (MWavg 16 kDa), about 3.7 peptides/heparin, attachment site not given here)
[1]
  endothelial cell barrier function: preserves endothelial cell barrier function
[2]; 30 minutes ischemia, approximate dose 10 mg/kg into femoral vein immediately after clamp removal, FIG. 4
  protection from renal damage upon reperfusion, compared with active control (peptide alone): protects from renal damage upon reperfusion better than active control (peptide alone)
[2]; treatment immediately following renal reperfusion, approximate dose 10 mg/kg, femoral vein
  kidney damage (serum creatinine 24 hours, creatinine clearance 24 hours and 7 days post procedure): inhibits kidney damage
[3]; Tris-NaCl-CaCl2 buffer
  effect of Tris-NaCl-CaCl2 buffer on molecule binding to VE-cadherin: enhances molecule binding significantly
[3]; biotinylated eHep-Bbeta (1:8:50), 1 mg/mL in Tris-NaCl-CaCl2, serial dilution 1:3, 2 hour RT, absorbance 450 nm, FIG. 2
  binding to VE-cadherin: binds to VE-cadherin in a dose dependent manner
